Test results reported in patent publication US20030190650A1 (priority 2000, published 2003).

Tested on: primary human neutrophils
Experiment: Gliotoxin block of GM-CSF inhibition of neutrophil apoptosis (MTT)
Type: cell-based
Details: 0.1 μg/ml with 5 U/ml GM-CSF
Protocol: Primary human neutrophils are isolated and purified from peripheral blood of normal healthy individuals. Neutrophils are resuspended in serum containing culture medium containing 5 U/ml of GM-CSF at a concentration of 2×10^6/ml. […] After the indicated time, 10 μl of MTT (5 mg/ml) are added to the cultures and incubated for a further 4 h at 37° C. before solubilisation of the purple coloured formazan with acidic isopropanol. Optical densities are read at 570 nm using a plate reader.

## CS[C@]1(CO)C(=O)N2[C@H]3C(=CC=C[C@@H]3O)C[C@@]2(SC)C(=O)N1C [methylgliotoxin, bis-Dethio-bis (Methylthio) Gliotoxin]
  effect on GM-CSF inhibition of neutrophil apoptosis: blocking effect is not seen
